Laboratory results from ChEMBL document CHEMBL5120920, “A Mitochondria-Targeted Phenylbutyric Acid Prodrug Confers Drastically Improved Anticancer Activities” (J Med Chem, 2022).

What was measured:
MDA-MB-231 = test: Antiproliferative activity against human MDA-MB-231 cells assessed as inhibition of cell viability incubated for 72 hrs by MTT assay; assay type: functional, cell-based; details: MDA-MB-231, 72 h
[1] = Toxicity in BALB/c mouse assessed as histopathological changes in heart at 50 to 100 mg/kg, iv measured after 7 days by H and E staining based assay; assay type: organism-based; details: in vivo, 168 h, dose 50-100 mg/kg, time 7 day
A-375 = test: Induction of apoptosis in human A-375 cells assessed as apoptotic cells at 10 uM measured at 72 hrs by Annexin V FITC/PI staining based flow cytometry analysis relative to control; assay type: functional
[2] = Toxicity in BALB/c mouse assessed as histopathological changes in kidney at 50 to 100 mg/kg, iv measured after 7 days by H and E staining based assay; assay type: organism-based; details: in vivo, 168 h, dose 50-100 mg/kg, time 7 day

## O=C(CCCCCCCCC[P+](c1ccc(C(F)(F)F)cc1)(c1ccc(C(F)(F)F)cc1)c1ccc(C(F)(F)F)cc1)NC(COC(=O)CCCc1ccccc1)(COC(=O)CCCc1ccccc1)COC(=O)CCCc1ccccc1.[Br-]
MDA-MB-231
  IC50: 3.71 µM
[1]
  Activity: Non-Toxic
A-375
  Activity: 77%
[2]
  Activity: Non-Toxic
